Where two headings read alike, the source gives them in different places.
Legend:
Type in all cases: biochemical
[1] = target: T1, catalytic kinase (JH1) domain of human TYK2 (Homo sapiens, UniProt P29597); experiment: ADP-Glo kinase assay, TYK2 kinase domain
T1 construct: recombinantly generated catalytic kinase (also known as JH1) domain of human JAK1, JAK2, JAK3 and TYK2
T1 sequence (P29597 897-1176 limits assumed): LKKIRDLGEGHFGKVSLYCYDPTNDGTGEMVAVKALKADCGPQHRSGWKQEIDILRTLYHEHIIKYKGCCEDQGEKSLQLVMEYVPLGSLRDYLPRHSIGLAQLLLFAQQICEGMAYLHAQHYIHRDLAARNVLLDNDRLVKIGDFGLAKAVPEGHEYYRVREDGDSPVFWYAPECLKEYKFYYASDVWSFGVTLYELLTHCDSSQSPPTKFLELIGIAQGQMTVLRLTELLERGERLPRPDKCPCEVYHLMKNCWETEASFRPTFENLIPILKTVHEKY
Procedure: (§1) As summarized in Table 3 below, compounds of the disclosure were assessed for their ability to inhibit TYK2, JAK1, JAK2, and JAK3 activity.
(§2) The kinase activity of recombinantly generated catalytic kinase (also known as JH1) domain of human JAK1, JAK2, JAK3 and TYK2 were evaluated in a plate-based assay using the ADP-Glo™ Kinase Assay platform. […] The reactions proceed for 100 minutes and the catalytic activity is quantified by first depleting the unused ATP, converting the hydrolyzed ADP into ATP to generate luminescence in a luciferase reaction; which is the basis of the ADP-Glo platform. Compounds are tested at either 10 μM or 1 μM top concentration, 11 points of 3-fold dilution. The data is normalized and the percent activity versus log concentration of compound is fitted with a 4-parameter logistic model to generate a curve and an IC50 value.

[2] = target: T2, catalytic kinase (JH1) domain of human JAK1 (Homo sapiens, UniProt P23458); experiment: ADP-Glo kinase assay, JAK1 kinase domain
T2 construct: 4 nM of recombinant JAK1 kinase domain is used to phosphorylate
Procedure: as §1, §2

[3] = target: T3, catalytic kinase (JH1) domain of human JAK2 (Homo sapiens, UniProt O60674); experiment: ADP-Glo kinase assay, JAK2 kinase domain
T3 construct: Catalytic activities of recombinant JAK2, JAK3 and TYK2 kinase domain
Procedure: as §1, §2

[4] = target: T4, catalytic kinase (JH1) domain of human JAK3 (Homo sapiens, UniProt P52333); experiment: ADP-Glo kinase assay, JAK3 kinase domain
T4 construct: Catalytic activities of recombinant JAK2, JAK3 and TYK2 kinase domain
Procedure: as §1, §2

[5] = 2 nM recombinant TYK2 kinase domain, 50 μM JAK3-974 peptide, 10 μM ATP, 100 minutes, read-out: TYK2 biochem IC50 (nM) Mean
[6] = 4 nM recombinant JAK1 kinase domain, 50 μM JAK3-342 peptide, 35 μM ATP, 100 minutes, read-out: JAK1 biochem IC50 (nM) Mean
[7] = 0.2 nM recombinant JAK2 kinase domain, 50 μM JAK3-974 peptide, 15 μM ATP, 100 minutes, read-out: JAK2 biochem IC50 (nM) Mean
[8] = 0.3 nM recombinant JAK3 kinase domain, 50 μM JAK3-974 peptide, 4 μM ATP, 100 minutes, read-out: JAK3 biochem IC50 (nM) Mean

T4 sequence (P52333 822-1111 limits assumed): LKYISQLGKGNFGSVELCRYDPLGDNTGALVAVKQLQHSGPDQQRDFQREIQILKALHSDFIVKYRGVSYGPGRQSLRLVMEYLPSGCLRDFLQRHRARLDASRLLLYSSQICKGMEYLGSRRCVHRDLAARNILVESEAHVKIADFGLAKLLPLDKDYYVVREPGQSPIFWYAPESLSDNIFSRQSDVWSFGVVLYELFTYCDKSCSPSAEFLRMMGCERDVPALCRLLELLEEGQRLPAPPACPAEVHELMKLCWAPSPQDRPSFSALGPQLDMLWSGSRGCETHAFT
T3 sequence (O60674 849-1124 limits assumed): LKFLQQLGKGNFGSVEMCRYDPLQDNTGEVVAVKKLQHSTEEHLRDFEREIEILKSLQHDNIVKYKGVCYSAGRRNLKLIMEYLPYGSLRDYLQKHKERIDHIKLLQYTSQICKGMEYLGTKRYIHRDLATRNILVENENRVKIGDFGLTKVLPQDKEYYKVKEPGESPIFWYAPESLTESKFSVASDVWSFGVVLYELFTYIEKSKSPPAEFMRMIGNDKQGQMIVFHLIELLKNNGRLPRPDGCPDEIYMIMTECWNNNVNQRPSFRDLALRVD
T2 sequence (P23458 875-1153 limits assumed): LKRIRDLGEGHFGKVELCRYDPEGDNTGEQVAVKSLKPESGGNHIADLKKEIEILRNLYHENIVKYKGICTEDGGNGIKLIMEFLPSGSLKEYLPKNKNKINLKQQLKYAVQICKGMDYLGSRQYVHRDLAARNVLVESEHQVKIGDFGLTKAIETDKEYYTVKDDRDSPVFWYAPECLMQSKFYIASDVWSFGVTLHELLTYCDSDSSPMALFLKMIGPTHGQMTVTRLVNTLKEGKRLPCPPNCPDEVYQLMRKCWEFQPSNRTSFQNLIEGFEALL

SMILES	IC50 [1, 5] [nM]	IC50 [2, 6] [nM]	IC50 [3, 7] [nM]	IC50 [4, 8] [nM]	IC50 [1] [nM]	IC50 [2] [nM]	IC50 [3] [nM]	IC50 [4] [nM]
COC1CC(N2C3CCC2CN(c2ccnn4cc(-c5cnn(C)c5)cc24)C3)C1 (stereo not drawn) [Example 24, 4-(8-(3-methoxycyclobutyl)-3,8-diazabicyclo[3.2.1]octan-3-yl)-6-(1-methyl-1H-pyrazol-4-yl)pyrrolo[1,2-b]pyridazine]	19	230	380	4250				
COc1cc(-c2cc3c(N4CC5CCC(C4)N5[C@H]4C[C@@H](C#N)C4)ccnc3[nH]2)ccn1 [Example 14, (1S,3s)-3-(3-(2-(2-methoxypyridin-4-yl)-1H-pyrrolo[2,3-b]pyridin-4-yl)-3,8-diazabicyclo[3.2.1]octan-8-yl)cyclobutane-1-carbonitrile]					21.5	205	170	1800
Cn1cc(-c2cc3c(N4CC5CCC(C4)N5C4CC5(COC5)C4)ccnn3c2)cn1 [Example 33, 4-(8-(2-oxaspiro[3.3]heptan-6-yl)-3,8-diazabicyclo[3.2.1]octan-3-yl)-6-(1-methyl-1H-pyrazol-4-yl)pyrrolo[1,2-b]pyridazine]					42.5	1350	740	6200
Cc1cc(-c2cc3c(N4CC5CCC(C4)N5[C@H]4C[C@@H](C#N)C4)ccnn3c2)on1 [Example 59, (1S,3s)-3-(3-(6-(3-methylisoxazol-5-yl)pyrrolo[1,2-b]pyridazin-4-yl)-3,8-diazabicyclo[3.2.1]octan-8-yl)cyclobutane-1-carbonitrile]					4.25	65.5	26	220
COc1cc(-c2cc3c(N4CC5CCC(C4)N5C4CC(C(F)F)C4)ccnc3[nH]2)ccn1 (stereo not drawn) [Example 19, 4-(8-(3-(difluoromethyl)cyclobutyl)-3,8-diazabicyclo[3.2.1]octan-3-yl)-2-(2-methoxypyridin-4-yl)-1H-pyrrolo[2,3-b]pyridine]	40.5	68	115	785				
Cn1cc(-c2cc3c(N4CC5CCC(C4)N5[C@H]4C[C@@H](O)C4)ccnn3c2)cn1 [Example 32, (1S,3s)-3-(3-(6-(1-methyl-1H-pyrazol-4-yl)pyrrolo[1,2-b]pyridazin-4-yl)-3,8-diazabicyclo[3.2.1]octan-8-yl)cyclobutan-1-ol]	460	> 10000	6300	> 10000				
Cn1cc(-c2nc3c(N4CC5CCC(C4)N5[C@H]4C[C@](C)(C#N)C4)ccnc3[nH]2)cn1 [Example 1, (1R,3r)-1-methyl-3-(3-(2-(1-methyl-1H-pyrazol-4-yl)-3H-imidazo[4,5-b]pyridin-7-yl)-3,8-diazabicyclo[3.2.1]octan-8-yl)cyclobutane-1-carbonitrile]	13.4	175	102	850				
CO[C@H]1C[C@H](N2C3CCC2CN(c2ccnn4cc(-c5cnn(C)c5)cc24)C3)C1 [Example 29, 4-(8-((1r,3R)-3-methoxycyclobutyl)-3,8-diazabicyclo[3.2.1]octan-3-yl)-6-(1-methyl-1H-pyrazol-4-yl)pyrrolo[1,2-b]pyridazine]	187	6500	3600	> 10000				
Cn1cc(-c2cc3c(N4CC5CCC(C4)N5[C@H]4C[C@@H](S(C)(=O)=O)C4)ccnn3c2)cn1 [Example 36, 6-(1-methyl-1H-pyrazol-4-yl)-4-(8-((1s,3s)-3-(methylsulfonyl)cyclobutyl)-3,8-diazabicyclo[3.2.1]octan-3-yl)pyrrolo[1,2-b]pyridazine]					50.5	435	240	1700
Cn1cc(-c2cc3c(N4CC5CCC(C4)N5C4(CC#N)COC4)ccnn3c2)cn1 [Example 20, 2-(3-(3-(6-(1-methyl-1H-pyrazol-4-yl)pyrrolo[1,2-b]pyridazin-4-yl)-3,8-diazabicyclo[3.2.1]octan-8-yl)oxetan-3-yl)acetonitrile]	40.5	520	265	1400				
Cn1cc(-c2cc3c(N4CC5CCC(C4)N5C4CCC4)ccnn3c2)cn1 [Example 26, 4-(8-cyclobutyl-3,8-diazabicyclo[3.2.1]octan-3-y1)-6-(1-methyl-1H-pyrazol-4-yl)pyrrolo[1,2-b]pyridazine]					195	6100	3300	> 10000
Cn1cc(-c2cc3c(N4CC5CCC(C4)N5[C@H]4C[C@H](S(C)(=O)=O)C4)ccnn3c2)cn1 [Example 37, 6-(1-methyl-1H-pyrazol-4-yl)-4-(8-((1r,3r)-3-(methylsulfonyl)cyclobutyl)-3,8-diazabicyclo[3.2.1]octan-3-yl)pyrrolo[1,2-b]pyridazine]					310	4300	1450	> 10000
COC[C@]1(C#N)C[C@@H](N2C3CCC2CN(c2ccnn4cc(-c5cnn(C)c5)cc24)C3)C1 [Example 43, (1r,3r)-1-(methoxymethyl)-3-(3-(6-(1-methyl-1H-pyrazol-4-yl)pyrrolo[1,2-b]pyridazin-4-yl)-3,8-diazabicyclo[3.2.1]octan-8-yl)cyclobutane-1-carbonitrile]	3.7	73	39	260				
Cn1cc(-c2cc3c(N4CC5CCC(C4)N5C4CC(O)C4)ccnn3c2)cn1 (stereo not drawn) [Example 25, 3-(3-(6-(1-methyl-1H-pyrazol-4-yl)pyrrolo[1,2-b]pyridazin-4-yl)-3,8-diazabicyclo[3.2.1]octan-8-yl)cyclobutan-1-ol]	435	6250	5050	> 10000				
Cn1cc(-c2cc3c(N4CC5CCC(C4)N5[C@H]4C[C@@H](C#N)C4(C)C)ccnn3c2)cn1 (single isomer, unassigned) [Example 47]					2.33	72.3	17.3	130
Cn1cc(-c2cc3c(N4CC5CCC(C4)N5[C@H]4C[C@@H](C#N)C4)ccnc3[nH]2)cn1 [Example 16, (1S,3s)-3-(3-(2-(1-methyl-1H-pyrazol-4-yl)-1H-pyrrolo[2,3-b]pyridin-4-yl)-3,8-diazabicyclo[3.2.1]octan-8-yl)cyclobutane-1-carbonitrile]	17.5	315	117	550				
Cn1cc(-c2cc3c(N4CC5CCC(C4)N5[C@H]4CCC45COC5)ccnn3c2)cn1 (single isomer, unassigned) [Example 40]					320	> 10000	1900	> 10000
CO[C@H]1C[C@@H](N2C3CCC2CN(c2ccnn4cc(-c5cnn(C)c5)cc24)C3)C1 [Example 30, 4-(8-((1s,3S)-3-methoxycyclobutyl)-3,8-diazabicyclo[3.2.1]octan-3-yl)-6-(1-methyl-1H-pyrazol-4-yl)pyrrolo[1,2-b]pyridazine]	367	> 10000	4670	> 10000				
COc1cc(-c2cc3c(N4CC5CCC(C4)N5C4CC(C#N)C4)ccnn3c2)cnn1 (stereo not drawn) [Example 54, 3-(3-(6-(6-methoxypyridazin-4-yl)pyrrolo[1,2-b]pyridazin-4-y1)-3,8-diazabicyclo[3.2.1]octan-8-yl)cyclobutane-1-carbonitrile]	72	420	305	1600				
CO[C@H]1C[C@H](N2C3CCC2CN(c2ccnc4[nH]c(-c5cnn(C)c5)nc24)C3)C1 [Example 5, 7-(8-((1r,3R)-3-methoxycyclobutyl)-3,8-diazabicyclo[3.2.1]octan-3-yl)-2-(1-methyl-1H-pyrazol-4-yl)-3H-imidazo[4,5-b]pyridine]	145	900	870	9700				
Cn1cc(-c2cc3c(N4CC5CCC(C4)N5[C@H]4C[C@H](O)C4)ccnn3c2)cn1 [Example 31, (1R,3r)-3-(3-(6-(1-methyl-1H-pyrazol-4-yl)pyrrolo[1,2-b]pyridazin-4-yl)-3,8-diazabicyclo[3.2.1]octan-8-yl)cyclobutan-1-ol]	205	9200	4000	> 10000				

— patent US20250387400A1, “TYK2 INHIBITORS” (BIOGEN MA INC., priority 2022, published 2025)
